This note sets out measurements from paper PMC12690573, “Playing with Structural Parameters in the Design of Ruthenium(II)–p‑Cymene Complexes as Potential Antibacterial Agents” (Inorganic Chemistry, 2025).

Values after ≈ are worked out from the molar mass of the structure shown. Where two headings read alike, the source gives them in different places. Some results are limits rather than exact numbers.

One series deals with B. cenocepacia J2315. The series can be described thus: Antibacterial susceptibility, broth microdilution (OD600). Particulars: for MIC: B. cenocepacia J2315, MHB, 48 h. Format: cell-based, Burkholderia cenocepacia. The source says:
(§1) The antibacterial properties of Ru-pCy1–5 were investigated against Burkholderia cenocepacia strains J2315 and K56-2, two well-characterized clinical isolates of this Gram-negative pathogen, as well as against Bacillus subtilis 168, which was used as a model for a Gram-positive bacterial strain.
(§2) The obtained results are presented as normalized OD600 values, reporting the ratio of bacterial growth relative to that of the control (untreated) cells. These are plotted in Figure as a function of the compound concentrations (μg/mL), providing a quantitative assessment of the dose-dependent effects on bacterial growth of the tested ruthenium complexes.
(§3) Antimicrobial susceptibility was assessed in the following strains: B. cenocepacia K56-2 and J2315 and B. subtilis 168. For each bacterial strain, three independent biological replicates were prepared by inoculating Mueller–Hinton Broth (MHB) into sterile culture tubes, followed by overnight incubation at 37 °C with shaking at 130 rpm. Cultures were diluted to a final OD600 of 0.05 per well in 96-well microplates (Sarstedt AG & Co.) and exposed to 10 serial 2-fold dilutions of the compounds, ranging from 256 μg/mL to 0.5 μg/mL. Each biological replicate included three technical replicates. Growth inhibition was assessed visually and quantified by measuring OD600 after 24 h for B. subtilis 168 and after 48 h for B. cenocepacia strains K56-2 and J2315 using a Tecan Infinite 200 PRO plate reader.
For orientation: Broth dilution looks for growth in wells or tubes with falling amounts of substance.

In a further series the test system is B. cenocepacia K56-2. The series is described as above. Format: cell-based, Burkholderia cenocepacia. Particulars: B. cenocepacia K56-2, MHB, 48 h.
Source text: as §1, §2, §3

Series [1] in a line: Water–octanol partition coefficient, shake-flask method (Log P pH7.4). Format: physicochemical. Particulars: PBS pH 7.4 / n-octanol, 16 μM. On the procedure: The study was performed by using the shake-flask method, obtaining the water–octanol partition coefficients of complexes in PBS buffer at pH = 7.4 (Log P pH7.4), as listed in Table .
The octanol–water distribution coefficients were determined at pH 7.4 using the shake-flask method. , Briefly, solutions of the tested compounds (16 μM) in phosphate buffer (pH 7.4) were mixed with n-octanol in flasks at three different PBS:n-octanol ratios (1:1, 0.5:1, 2:1). The mixtures were manually shaken to allow equilibration between the organic and aqueous phases. Subsequently, phase separation was achieved by centrifugation at 4000 rpm for 10 min. The concentrations of ruthenium compounds in both phases were then determined spectrophotometrically. The log P 7.4 values were calculated as the mean value of the log[Ru-pCy1–5]-oct/[Ru-pCy1–5]PBS/4 values obtained from the three different PBS:n-octanol ratio samples for each complex.

The target in series [2] is T1, Bovine Pancreatic Ribonuclease A (Bos taurus, UniProt P61823).
T1 construct: Bovine Pancreatic Ribonuclease A (Merck); purchased Merck
T1 sequence (P61823 27-150): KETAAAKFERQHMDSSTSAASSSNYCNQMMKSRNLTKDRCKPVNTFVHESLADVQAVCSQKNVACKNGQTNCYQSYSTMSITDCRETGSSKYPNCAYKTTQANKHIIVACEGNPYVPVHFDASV
The series can be described thus: ESI-MS protein interaction study with RNase A. Format: binding. Particulars: 1:3 protein to ruthenium ratio, 24 h, 37 °C. On the procedure:
(§4) Accordingly, ESI-MS spectra of RNase A, SOD, and CytC incubated for 24 h with a 3-fold molar excess of each of the five different ruthenium complexes were recorded. […] This could be exacerbated by the steric hindrance of L3.
(§5) Sample preparation: stock solutions of Bovine Superoxide Dismutase SOD) (Merck), Bovine Pancreatic Ribonuclease A (Merck), and Horse Heart Cytochrome c (Merck) 10^–3 M were prepared by dissolving the lyophilized protein in LC–MS-grade water. Stock solutions 10^–2 M RACs were prepared by dissolving the samples in acetonitrile. For the experiments, an aliquot of the stock solutions of the selected protein was mixed with aliquots of each ruthenium compounds at protein-to-metal ratio 1:3 and diluted with LC–MS-grade water to 100 μM final protein concentration. The mixtures were incubated at 37 °C up to 24 h. After the incubation time, the protein solutions were sampled and diluted to a final protein concentration of 500 nM using LC–MS-grade water and adding 0.1% v/v of formic acid just before the infusion in the mass spectrometer.
(§6) Instrumental parameters: the ESI mass spectra were acquired through direct infusion at 7 μL min^–1 flow rate in a TripleTOF 5600+ high-resolution mass spectrometer (Sciex, Framingham, MA, U.S.A.), equipped with a DuoSpray interface operating with an ESI probe.
RNase: positive polarity, Ionspray Voltage Floating 5500 V, Temperature 0, Ion source Gas 1 (GS1) 40 L/min; Ion source Gas 2 (GS2) 0; Curtain Gas (CUR) 15 L/min, Declustering Potential (DP) 100 V, Collision Energy (CE) 10 V, acquisition range 1000–2600 m/z.
(§7) For acquisition, Analyst TF software 1.7.1 (Sciex) was used, and deconvoluted spectra were obtained by using the Bio Tool Kit microapplication v.2.2 embedded in Peak-ViewTM software v.2.2 (Sciex).

A short description of series [3]: Aquation (Ru–Cl hydrolysis) followed by UV–vis in aqueous solution. Format: physicochemical. Particulars: neutral pH, 298 K; for k water (aquation rate constant) / t 1/2 (aquation half-life): 10 μM, pseudo-first-order model. The procedure:
In view of the well-known lability of the Ru(II)–Cl bond in RACs and considering its relevance for their biological mechanism of action, the aquation process of all systems was investigated. This was performed according to literature methods spectrophotometrically, by registering the UV–vis spectra of freshly prepared aqueous solutions of complexes at neutral pH over different times, up to 12 h, at 298 K. Results for Ru-pCy1 are shown in Figure , while those for the other complexes are reported in Figures S27–S28 Supporting Information. […] The temporal evolution to the aquo-species is also further supported by comparison of spectra collected at increasing time frames and the absorption profile of the aquo species, registered by adding AgNO3 to the metal complex (Figure b). A similar behavior was also observed for the other compounds, confirming their capability to readily lose the chloride ligand. […] Hydrolysis was not observed during the stability experiments (Figure S26), likely being suppressed by the high NaCl concentration in the PBS buffer media (140 mM).
The aquation rate constants (k water) and the corresponding half-lives (t 1/2) were determined by the time-dependent absorbance changes at the MLCT maxima according to a pseudo-first-order kinetic model. The resulting values, reported in Table , range between 2.48 and 5.4 × 10^–4 s^–1.

The subject of the next series is B. subtilis 168. The series can be described thus: Antibacterial susceptibility, broth microdilution (OD600). Format: cell-based, Bacillus subtilis. The conditions noted are these: for MIC: B. subtilis 168, MHB, 24 h; for Antibacterial activity profile (in words) / Concentration inducing approximately 50% inhibition of bacterial growth: B. subtilis; for Antibacterial activity profile (in words): normalized OD600 vs concentration; for Concentration inducing approximately 50% inhibition of bacterial growth: normalized OD600, 24 h.
Source text: as §1, §2, §3

In a further series the target is T2, Horse Heart Cytochrome c (Equus caballus, UniProt P00004).
T2 construct: Horse Heart Cytochrome c (Merck); purchased Merck
The series can be described thus: ESI-MS protein interaction study with CytC. Format: binding. Particulars: 1:3 protein to ruthenium ratio, 24 h, 37 °C. The procedure:
as §4, §5
Instrumental parameters: the ESI mass spectra were acquired through direct infusion at 7 μL min^–1 flow rate in a TripleTOF 5600+ high-resolution mass spectrometer (Sciex, Framingham, MA, U.S.A.), equipped with a DuoSpray interface operating with an ESI probe. […]

The target in series [4] is T3, Bovine Superoxide Dismutase (SOD) (Bos taurus, UniProt P00442).
T3 construct: purchased Merck
As to the kind of experiment: ESI-MS protein interaction study with SOD. Format: binding. The conditions noted are these: 1:3 protein to ruthenium ratio, 24 h, 37 °C. The procedure:
as §4, §5, §6
SOD: positive polarity, IonSpray Voltage Floating 5500 V, Temperature 0, Ion source Gas 1 (GS1) 40 L/min; Ion source Gas 2 (GS2) 0; Curtain Gas (CUR) 15 L/min, Declustering Potential (DP) 200 V, Collision Energy (CE) 10 V, acquisition range 1500–3500 m/z.
as §7

The nature of series [5]: Stability in CH3CN/PBS solution by UV–vis over 72 h. Particulars: 1 × 10^–5 M in CH3CN/PBS (CH3CN 1% v/v), room temperature. Format: physicochemical. The procedure:
To gain insights into the suitability of RACs for biological purposes, their stability in aqueous solution was investigated before studying their interactions with representative proteins (SOD, RNase A, and CytC) by ESI-MS analysis (vide infra). Measurements were performed under strictly controlled conditions (temperature, pH, and complex concentration), namely, at a concentration of 1 × 10^–5 M in CH3CN/PBS solution (CH3CN 1% v/v) at room temperature, over a total of 72 h. The resulting time-dependent absorption profiles are reported in Figure S26 (Supporting Information).
Spectrofluorimetric-grade solvents were used for the preparation of all solutions. The PBS solution (pH 7.4, KCl 2.7 mM, NaCl 140 mM, phosphate 10 mM) was prepared according to the standard procedure. RACs were dissolved in CH3CN and then diluted to reach a final concentration of 1 × 10^–5 M in CH3CN/buffer solution (CH3CN 1% v/v). A PerkinElmer Lambda 900 spectrophotometer was employed to record the UV–Visible absorption spectra using 10 mm path-length quartz cuvettes.

Series [6] is described as follows: pKa of coordinated water ligand, potentiometric. Format: physicochemical. Particulars: H2O/EtOH 4:1 v/v, NaClO4 0.1 M, 298 K, 1 mM. The procedure:
(§8) The acid–base behavior of the coordinated water ligand to the metal scaffold was also considered. To this aim, the UV–vis spectra of batchwise aqueous solutions of the lead compound Ru-pCy1 at different pH at 298 K were registered, and the changes in the MLCT region were monitored. […] A slightly higher value (8.82 ± 0.08) was instead determined potentiometrically under mixed solvent conditions (H2O/EtOH 4:1 v/v, NaClO4 0.1 M, 298 K, ligand concentration 1 mM), required to ensure the full solubilization of the complex.

Series [7] in a line: pKa of coordinated water ligand by UV–vis pH titration. Format: physicochemical. The conditions noted are these: absorbance at 435 nm, Henderson–Hasselbalch fit, 298 K.
Source text: Lastly, the tendency of the coordinated water ligand to undergo deprotonation was also considered. This has been investigated for the lead compound Ru-pCy1, by recording the UV–vis spectra of batchwise aqueous solutions of the complex at different pH values and monitoring the changes in the MLCT region (Figure S29).
as §8

T3 sequence (P00442 whole entry): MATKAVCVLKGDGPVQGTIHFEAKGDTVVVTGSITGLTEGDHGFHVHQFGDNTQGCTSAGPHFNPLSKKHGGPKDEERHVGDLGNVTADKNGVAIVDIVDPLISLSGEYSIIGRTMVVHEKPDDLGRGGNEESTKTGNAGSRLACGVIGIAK
T2 sequence (P00004 whole entry): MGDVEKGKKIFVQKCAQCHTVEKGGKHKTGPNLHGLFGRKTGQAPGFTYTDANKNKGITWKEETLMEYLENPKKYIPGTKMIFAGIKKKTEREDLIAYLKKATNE

As for `Cc1ccc(C(C)C)cc1.F[P-](F)(F)(F)(F)F.[Cl-].[Ru+2].c1ccc2nc(-c3ccc4ccccc4n3)ccc2c1` [Ru-pCy3], the minimal inhibitory concentration (MIC) (in general, the least concentration at which growth counts as inhibited) against B. cenocepacia J2315 was 256 µg/mL; in the series with B. cenocepacia K56-2 it was > 256 µg/mL; with B. subtilis 168, 256 µg/mL. In addition, the “Log P pH7.4” value in [1] is recorded as 0.57 ± 0.19. Moreover, the “Adduct formation with RNase A” value in [2] is “did not interact”. In addition, in [3] (aqueous solution, up to 12 h), the “Ru–Cl hydrolysis (spectral variation over time)” value is recorded as “did not show appreciable variations”. In addition, the “Antibacterial activity profile (in words)” value with B. subtilis 168 was “intermediate antibacterial characteristics”. Besides, on Horse Heart Cytochrome c, the “Adduct formation with CytC” value was “did not interact”. Besides, in [4], the “Adduct formation with SOD” value is “did not interact”.
As for `O=C(N[C@H](CO)[C@H](O)c1ccc([N+](=O)[O-])cc1)C(Cl)Cl` [chloramphenicol, reference compound], the minimum inhibitory concentration (MIC) in the series with B. cenocepacia J2315 (Burkholderia cenocepacia, read-out: MIC) is 32 µg/mL (≈ 99 µM); with B. cenocepacia K56-2 (Burkholderia cenocepacia, K562, read-out: MIC), 64 µg/mL (≈ 198 µM); in the series with B. subtilis 168 (Bacillus subtilis, read-out: MIC) it was 16 µg/mL (≈ 49.5 µM).
As for `Cc1ccc(C(C)C)cc1.F[P-](F)(F)(F)(F)F.[Cl-].[Ru+2].c1ccc2cc3nc4c5cccnc5c5ncccc5c4nc3cc2c1` [Ru-pCy1], the “Stability in aqueous solution” value in series [5] is recorded as “moderate tendency to precipitate at the longest time points”. Besides, the MIC is 128 µg/mL in the series with B. cenocepacia J2315, 256 µg/mL against B. cenocepacia K56-2 and 128 µg/mL in the series with B. subtilis 168. For the same molecule, the “Concentration inducing approximately 50% inhibition of bacterial growth” value in the series on B. cenocepacia J2315 (B. cenocepacia J2315, normalized OD600, 48 h) is ~32 µg/mL; with B. subtilis 168, ~64 µg/mL. Further, the “pK a of coordinated water ligand” value in [6] was 8.82 ± 0.08; in [7] it was 8.3 ± 0.1. Also, the “Log P pH7.4” value in series [1] is 0.80 ± 0.30. The “Adduct formation with RNase A” value in [2] was “form stable adducts”. Also, the “k water (aquation rate constant)” value in series [3] was 2.5 ± 0.1 × 10^–4 s^–1. The “t 1/2 (aquation half-life)” value in series [3] was 46.5 ± 2.0 min. Moreover, the “Antibacterial activity profile (in words)” value in the series on B. subtilis 168 is “notable inhibitory effect”. Further, in series [4], the “Adduct formation with SOD” value is “form stable adducts”.
Take `Cc1ccc(C(C)C)cc1.F[P-](F)(F)(F)(F)F.[Cl-].[Ru+2].c1ccc(-c2ccnc3c2ccc2c(-c4ccccc4)ccnc23)cc1` [Ru-pCy2]: the MIC in the series on B. cenocepacia J2315 was 256 µg/mL. In addition, the minimum inhibitory concentration (MIC) in the series with B. cenocepacia K56-2 is > 256 µg/mL. Moreover, the “Log P pH7.4” value in series [1] was found to be 0.91 ± 0.30. The “Adduct formation with RNase A” value in series [2] is “form stable adducts”. Also, in series [3], the “k water (aquation rate constant)” value is given as 4.5 ± 0.2 × 10^–4 s^–1 and the “t 1/2 (aquation half-life)” value amounted to 25.7 ± 1.2 min. Further, in the series on B. subtilis 168, the minimal inhibitory concentration (MIC) is 256 µg/mL, the “Concentration inducing approximately 50% inhibition of bacterial growth” value is ~8 µg/mL and the “Antibacterial activity profile (in words)” value is given as “notable inhibitory effect”. In [4], the “Adduct formation with SOD” value is “form stable adducts”.
